Source: patent US20230066011A1, “PYRROLOPYRIMIDINE DERIVATIVE, AND PHARMACEUTICAL COMPOSITION FOR PREVENTING OR TREATING PROTEIN KINASE-RELATED DISEASE COMPRISING SAME AS ACTIVE INGREDIENT” (VORONOI CO., LTD., priority 2019, published 2023)

What was measured:
LRRK2 = LRRK2 (Homo sapiens, UniProt Q5S007); assay: ScanMAX Kinase analysis panel, LRRK2; assay type: binding; set-up: purchased DiscoverX Corp. (ScanMAX Kinase analysis panel, service); details: 1 μM in DMSO; <35% considered inhibitory; read-out: percent control (% control), LRRK2
Protocol: (§1) Specifically, the enzyme (kinase) selectivity of Example compounds 238, 361, 411, 157, 161, 228, and 158 selected from the Example compounds of the present invention was determined by commissioning DiscoverX Corp., and an experiment was performed using a ScanMAX™ Kinase analysis panel. In this case, a concentration of the drug with which the enzymes were treated was 1 μM in DMSO, and the percent control (% control) was defined in the same manner as in the following Expression 1.
(§2) (Example Compound−Positive Control)/(Negative Control−Positive Control)×100 [Expression 1]
(§3) wherein the positive control represents a compound having a percent control of 0%, and the negative control represents DMSO having a percent control of 100%. For the enzyme selectivity of the present invention, it was considered that the compound has an inhibitory activity on each of the enzymes when the percent control for the corresponding enzyme was <35% (i. e., less than 35%).

GAK = biological target: T1, GAK (Homo sapiens, UniProt O14976); assay: ScanMAX Kinase analysis panel, GAK; assay type: binding; details: 1 μM in DMSO; <35% considered inhibitory; read-out: percent control (% control), GAK
T1 construct: purchased DiscoverX Corp. (ScanMAX Kinase analysis panel, service)
T1 sequence (O14976 1-1311): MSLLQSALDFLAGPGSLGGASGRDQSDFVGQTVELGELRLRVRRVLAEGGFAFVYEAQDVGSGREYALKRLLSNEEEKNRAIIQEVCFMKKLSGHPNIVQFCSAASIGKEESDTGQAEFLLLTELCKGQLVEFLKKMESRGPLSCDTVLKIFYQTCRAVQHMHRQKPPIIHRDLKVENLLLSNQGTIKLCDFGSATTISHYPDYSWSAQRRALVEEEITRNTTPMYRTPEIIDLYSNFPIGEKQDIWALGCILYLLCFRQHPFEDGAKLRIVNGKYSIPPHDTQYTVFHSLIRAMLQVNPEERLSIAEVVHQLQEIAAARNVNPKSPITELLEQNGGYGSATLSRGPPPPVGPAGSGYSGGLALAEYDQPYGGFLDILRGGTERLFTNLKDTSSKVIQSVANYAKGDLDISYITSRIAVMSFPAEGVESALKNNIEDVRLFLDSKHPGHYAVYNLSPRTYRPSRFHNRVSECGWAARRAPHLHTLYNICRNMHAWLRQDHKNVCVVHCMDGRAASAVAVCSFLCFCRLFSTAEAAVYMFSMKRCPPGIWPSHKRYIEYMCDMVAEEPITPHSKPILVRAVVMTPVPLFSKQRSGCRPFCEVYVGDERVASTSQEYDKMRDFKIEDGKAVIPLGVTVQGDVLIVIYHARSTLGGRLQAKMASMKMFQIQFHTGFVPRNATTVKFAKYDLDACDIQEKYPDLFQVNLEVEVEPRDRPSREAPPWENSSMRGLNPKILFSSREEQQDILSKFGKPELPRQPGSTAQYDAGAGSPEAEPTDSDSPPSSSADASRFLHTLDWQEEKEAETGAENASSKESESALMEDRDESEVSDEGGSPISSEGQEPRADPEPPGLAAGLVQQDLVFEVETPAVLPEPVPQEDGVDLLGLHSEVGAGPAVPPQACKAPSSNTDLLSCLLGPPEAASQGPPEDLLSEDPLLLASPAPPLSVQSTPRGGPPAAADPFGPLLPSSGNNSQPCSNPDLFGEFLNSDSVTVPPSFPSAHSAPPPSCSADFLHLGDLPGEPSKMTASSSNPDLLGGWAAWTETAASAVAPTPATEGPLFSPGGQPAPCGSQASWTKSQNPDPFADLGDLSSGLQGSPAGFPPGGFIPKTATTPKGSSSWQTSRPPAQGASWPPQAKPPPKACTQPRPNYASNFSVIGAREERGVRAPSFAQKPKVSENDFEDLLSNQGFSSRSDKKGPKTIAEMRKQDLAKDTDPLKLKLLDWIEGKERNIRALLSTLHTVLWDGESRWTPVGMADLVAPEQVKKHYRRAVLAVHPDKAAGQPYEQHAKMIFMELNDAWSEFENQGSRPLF
Protocol: as §1, §2, §3

SHP-77 = assay: Inhibition of proliferation of SHP-77 cancer cells (Cell Titer-Glo); assay type: cell-based; details: Homo sapiens, SHP77, 72 hours
Summary of the method: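 GI50 values derive from Cell Titer-Glo luminescence, measured after a 10-minute room-temperature incubation with the reagent. Before that, cells plated at 2,000 per well in DMEM or RPMI medium were treated for 72 h with compound at 11 final concentrations spanning 10 μM down to 0.000169 μM in threefold steps.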

CLK1 [1] = biological target: T2, CLK1 (Homo sapiens, UniProt P49759); assay: ScanMAX Kinase analysis panel, CLK1; assay type: binding; details: 1 μM in DMSO; <35% considered inhibitory; read-out: percent control (% control), CLK1
T2 construct: purchased DiscoverX Corp. (ScanMAX Kinase analysis panel, service)
Protocol: as §1, §2, §3

DYRK1 = DYRK1 (Homo sapiens, UniProt Q13627); assay: Kinase HotSpot service (Reaction Biology Corporation), DYRK1; assay type: biochemical; details: ATP 10 uM, read-out: DYRK1 IC50 (values indicated by *)
Protocol: (§4) The inhibitory activities of the compounds were measured at a 3-fold concentration gradient starting from a maximum compound concentration of […], and the values measured using the Kinase HotSpot service (Reaction Biology Corporation) are indicated by an asterisk (*).
(§5) All the experimental methods were performed as provided by the Kinase HotSpot Customer Protocol (http://www.reactionbiology.com//Kinase_Assay_Protocol).

CLK1 [2] = biological target: T2, CLK1; assay: Kinase HotSpot service (Reaction Biology Corporation), CLK1; assay type: biochemical; details: ATP 10 uM, read-out: CLK1 IC50 (values indicated by *)
Protocol: as §4, §5

THP-1 cells = assay: THP-1 GI50 (Table 4, cytokine secretion experiment); assay type: cell-based; details: Homo sapiens

Chain of LRRK2 (Q5S007 whole entry): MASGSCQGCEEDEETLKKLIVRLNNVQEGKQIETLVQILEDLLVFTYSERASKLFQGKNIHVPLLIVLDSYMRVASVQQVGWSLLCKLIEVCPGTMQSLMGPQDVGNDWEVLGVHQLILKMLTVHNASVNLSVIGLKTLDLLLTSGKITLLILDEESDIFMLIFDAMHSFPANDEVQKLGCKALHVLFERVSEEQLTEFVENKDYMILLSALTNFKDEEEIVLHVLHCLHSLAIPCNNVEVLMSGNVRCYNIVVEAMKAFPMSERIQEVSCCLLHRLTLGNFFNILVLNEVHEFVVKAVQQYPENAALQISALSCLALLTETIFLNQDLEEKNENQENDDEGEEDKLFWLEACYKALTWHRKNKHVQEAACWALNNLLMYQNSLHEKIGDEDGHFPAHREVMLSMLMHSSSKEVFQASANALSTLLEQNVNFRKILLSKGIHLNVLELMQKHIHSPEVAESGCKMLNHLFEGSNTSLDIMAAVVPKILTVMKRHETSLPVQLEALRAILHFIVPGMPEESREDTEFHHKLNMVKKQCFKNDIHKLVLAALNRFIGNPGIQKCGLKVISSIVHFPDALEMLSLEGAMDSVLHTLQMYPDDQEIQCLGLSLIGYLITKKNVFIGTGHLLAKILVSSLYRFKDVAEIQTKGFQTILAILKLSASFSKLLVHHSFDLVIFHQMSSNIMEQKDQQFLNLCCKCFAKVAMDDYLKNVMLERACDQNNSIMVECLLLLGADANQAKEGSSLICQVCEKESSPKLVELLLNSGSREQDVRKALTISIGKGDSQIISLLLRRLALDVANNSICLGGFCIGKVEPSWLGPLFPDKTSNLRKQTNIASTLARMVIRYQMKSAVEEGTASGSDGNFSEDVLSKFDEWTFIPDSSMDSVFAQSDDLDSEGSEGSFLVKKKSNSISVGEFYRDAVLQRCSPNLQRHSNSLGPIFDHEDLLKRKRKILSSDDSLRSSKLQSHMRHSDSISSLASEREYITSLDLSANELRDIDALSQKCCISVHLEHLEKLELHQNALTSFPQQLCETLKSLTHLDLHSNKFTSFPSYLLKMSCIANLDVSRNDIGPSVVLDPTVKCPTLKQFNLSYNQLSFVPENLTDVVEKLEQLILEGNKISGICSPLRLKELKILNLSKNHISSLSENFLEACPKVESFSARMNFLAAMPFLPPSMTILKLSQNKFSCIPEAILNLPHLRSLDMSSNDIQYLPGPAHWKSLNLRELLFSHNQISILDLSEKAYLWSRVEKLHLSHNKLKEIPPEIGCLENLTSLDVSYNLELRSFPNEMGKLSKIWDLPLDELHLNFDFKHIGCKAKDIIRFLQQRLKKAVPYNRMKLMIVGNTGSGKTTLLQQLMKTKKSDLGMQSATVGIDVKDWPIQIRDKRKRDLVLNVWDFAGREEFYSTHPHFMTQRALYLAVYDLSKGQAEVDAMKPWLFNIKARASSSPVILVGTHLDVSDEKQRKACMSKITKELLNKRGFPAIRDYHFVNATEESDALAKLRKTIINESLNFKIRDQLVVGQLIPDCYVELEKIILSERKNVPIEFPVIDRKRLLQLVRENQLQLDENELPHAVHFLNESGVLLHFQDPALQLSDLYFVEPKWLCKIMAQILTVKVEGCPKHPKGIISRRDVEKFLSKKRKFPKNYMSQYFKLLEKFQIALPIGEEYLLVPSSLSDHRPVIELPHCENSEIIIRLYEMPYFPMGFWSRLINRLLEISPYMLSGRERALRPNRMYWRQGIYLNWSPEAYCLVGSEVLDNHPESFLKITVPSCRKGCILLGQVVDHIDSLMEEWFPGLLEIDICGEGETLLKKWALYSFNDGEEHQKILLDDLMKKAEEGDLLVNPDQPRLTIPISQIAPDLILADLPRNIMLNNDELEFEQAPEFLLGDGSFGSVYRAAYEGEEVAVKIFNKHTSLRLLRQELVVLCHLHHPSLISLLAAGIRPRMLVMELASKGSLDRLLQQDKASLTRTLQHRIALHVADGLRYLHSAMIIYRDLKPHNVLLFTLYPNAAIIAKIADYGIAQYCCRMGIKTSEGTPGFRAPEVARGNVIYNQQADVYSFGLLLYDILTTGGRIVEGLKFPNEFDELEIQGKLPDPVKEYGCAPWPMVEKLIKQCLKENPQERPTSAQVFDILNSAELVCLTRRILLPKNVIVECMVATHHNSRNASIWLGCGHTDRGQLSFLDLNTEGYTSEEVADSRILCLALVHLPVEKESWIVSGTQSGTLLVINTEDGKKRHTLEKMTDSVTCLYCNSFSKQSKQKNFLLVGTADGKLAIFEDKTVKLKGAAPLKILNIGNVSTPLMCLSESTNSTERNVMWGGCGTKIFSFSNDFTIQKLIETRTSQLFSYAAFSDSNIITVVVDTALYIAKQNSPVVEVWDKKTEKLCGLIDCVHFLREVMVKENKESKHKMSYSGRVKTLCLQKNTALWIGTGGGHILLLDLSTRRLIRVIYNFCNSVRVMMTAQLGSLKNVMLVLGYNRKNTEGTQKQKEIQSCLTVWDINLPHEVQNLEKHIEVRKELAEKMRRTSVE
T2 sequence (P49759 whole entry): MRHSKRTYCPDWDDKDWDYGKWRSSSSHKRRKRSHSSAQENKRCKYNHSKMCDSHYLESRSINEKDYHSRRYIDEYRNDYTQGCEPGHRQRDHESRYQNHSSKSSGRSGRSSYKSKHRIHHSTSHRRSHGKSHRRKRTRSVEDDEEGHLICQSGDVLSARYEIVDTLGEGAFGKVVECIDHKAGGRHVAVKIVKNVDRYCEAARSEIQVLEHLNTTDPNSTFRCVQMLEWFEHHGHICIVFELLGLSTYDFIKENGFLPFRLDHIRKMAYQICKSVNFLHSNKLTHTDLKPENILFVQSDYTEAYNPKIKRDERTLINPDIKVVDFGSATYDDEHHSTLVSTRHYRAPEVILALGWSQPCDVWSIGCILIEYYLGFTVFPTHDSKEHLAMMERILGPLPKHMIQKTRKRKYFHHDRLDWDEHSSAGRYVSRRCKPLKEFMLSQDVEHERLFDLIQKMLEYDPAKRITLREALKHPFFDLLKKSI

| Compound | remaining binding at 1 µM (LRRK2) [%] | remaining binding at 1 µM (GAK) [%] | GI50 (SHP-77) [nM] | remaining binding at 1 µM (CLK1 [1]) [%] | IC50 (DYRK1) [nM] | IC50 (CLK1 [2]) [nM] | GI50 (THP-1 cells) [µM] |
| --- | --- | --- | --- | --- | --- | --- | --- |
| CCNc1nc(Nc2ccc(S(=O)(=O)N3CCC(N4CCOCC4)CC3)cc2OC)nc2[nH]cc(C(F)(F)F)c12 [Example 158, N^4-ethyl-N^2-(2-methoxy-4-((4-morpholinopiperidin-1-yl)sulfonyl)phenyl)-5-(trifluoromethyl)-7H-pyrrolo[2,3-d]pyrimidine-2,4-diamine 2,2,2-trifluoroacetate] | 0 | 21 | 51 to 100 | 1 | < 100 |  |  |
| CCCNc1nc(Nc2ccc(S(=O)(=O)N3CCC(N4CCOCC4)CC3)cc2OC)nc2[nH]cc(C(F)(F)F)c12 [Example 161, N^2-(2-methoxy-4-((4-morpholinopiperidin-1-yl)sulfonyl)phenyl)-N^4-propyl-5-(trifluoromethyl)-7H-pyrrolo[2,3-d]pyrimidine-2,4-diamine] | 1 | 4 | 301 to 1000 | 5.5 | < 100 | < 100 |  |
| COc1cc(S(=O)(=O)N2CCOCC2)ccc1Nc1nc(C2CC2)c2c(C#N)c[nH]c2n1 [Example 223, 4-cyclopropyl-2-((2-methoxy-4-(morpholinosulfonyl)phenyl)amino)-7H-pyrrolo[2,3-d]pyrimidine-5-carbonitrile] |  |  |  |  | 101 to 300 |  |  |
| COc1cc(S(=O)(=O)N2CCC(N3CCOCC3)CC2)ccc1Nc1nc(C2CC2)c2c(C#N)c[nH]c2n1 [Example 224, 4-cyclopropyl-2-((2-methoxy-4-((4-morpholinopiperidin-1-yl)sulfonyl)phenyl)amino)-7H-pyrrolo[2,3-d]pyrimidine-5-carbonitrile] |  |  |  |  | < 100 |  |  |
| COc1cc(S(=O)(=O)N2CCC(N3CCOCC3)CC2)ccc1Nc1nc(C2CC2)c2c(C(F)(F)F)c[nH]c2n1 [Example 226] |  |  |  |  | < 100 |  |  |
| CCN1CCP(=O)(c2ccc(Nc3nc(C4CC4)c4c(C#N)c[nH]c4n3)c(OC)c2)CC1 [Example 261] |  |  |  |  | < 100 |  |  |
| C=CCNc1nc(Nc2ccc(S(=O)(=O)N3CCC(N4CCOCC4)CC3)cc2OC)nc2[nH]cc(C#N)c12 [Example 361, 4-(allylamino)-2-((2-methoxy-4-((4-morpholino-piperidin-1-yl)sulfonyl)phenyl)amino)-7H-pyrrolo[2,3-d]pyrimidine-5-carbonitrile] | 0 | 2.7 |  | 2.4 |  |  |  |
| CNc1nc(Nc2ccc(P3(=O)CCN(C4CC4)CC3)cc2OC)nc2[nH]cc(C(F)(F)F)c12 [Example 411, 1-cyclopropyl-4-(3-methoxy-4-((4-(methylamino)-5-(trifluoromethyl)-7H-pyrrolo[2,3-d]pyrimidin-2-yl)amino)phenyl)-1,4-azaphosphinane-4-oxide] | 1.9 | 2.4 |  | 7.2 |  |  |  |
| COc1cc(S(=O)(=O)N2CCC(N3C[C@H]4C[C@@H]3CO4)CC2)ccc1Nc1nc(C2CC2)c2c(C(F)(F)F)c[nH]c2n1 [Example 473, N-(4-((4-((1R,4R)-2-oxa-5-azabicyclo[2.2.1]heptan-5-yl)piperidin-1-yl)sulfonyl)-2-methoxyphenyl)-4-cyclopropyl-5-(trifluoromethyl)-7H-pyrrolo[2,3-d]pyrimidin-2-amine] |  |  |  |  | < 100 | < 100 |  |

Next, values leading:

| remaining binding at 1 µM (LRRK2) [%] | remaining binding at 1 µM (GAK) [%] | GI50 (SHP-77) [nM] | remaining binding at 1 µM (CLK1 [1]) [%] | IC50 (DYRK1) [nM] | IC50 (CLK1 [2]) [nM] | GI50 (THP-1 cells) [µM] | Compound |
| --- | --- | --- | --- | --- | --- | --- | --- |
| 0.7 | 4.2 | 301 to 1000 | 6.7 |  |  |  | CNc1nc(Nc2ccc(S(=O)(=O)N3CCC(N4CCOCC4)CC3)cc2OC)nc2[nH]cc(C(F)(F)F)c12 [Example 157, N^2-(2-methoxy-4-((4-morpholinopiperidin-1-yl)sulfonyl)phenyl)-N^4-methyl-5-(trifluoromethyl)-7H-pyrrolo[2,3-d]pyrimidine-2,4-diamine 2,2,2-trifluoroacetate] |
| 0.3 | 3 |  | 6.1 | < 100 |  |  | O=C(c1ccc(Nc2nc(C3CC3)c3c(C(F)(F)F)c[nH]c3n2)c2c1OCCO2)N1CCC(N2CCOCC2)CC1 [Example 228, (8-((4-cyclopropyl-5-(trifluoromethyl)-7H-pyrrolo[2,3-d]pyrimidin-2-yl)amino)-2,3-dihydrobenzo[b][1,4]dioxin-5-yl)(4-morpholinopiperidin-1-yl)methanone] |
| 0.45 | 3.1 |  | 16 |  |  |  | CNc1nc(Nc2ccc(C(=O)N3CCC(N4CCOCC4)CC3)c3c2OCCO3)nc2[nH]cc(C(F)(F)F)c12 [Example 238, (8-((4-(methylamino)-5-(trifluoromethyl)-7H-pyrrolo[2,3-d]pyrimidin-2-yl)amino)-2,3-dihydrobenzo[b][1,4]dioxin-5-yl)(4-morpholinopiperidin-1-yl)methanone] |
|  |  |  |  |  |  | 13.6 | COCCNc1nc(Nc2ccc(C(=O)N3CCC(N4CCOCC4)CC3)c3c2OCC3)nc2[nH]cc(C#N)c12 [Example 359, 4-((2-methoxy-ethyl)ami-no)-2-((4-(4-morpholino-piperidine-1-carbonyl)-2,3-dihydro-benzofuran-7-yl)amino)-7H-pyrrolo[2,3-d]pyrimidine-5-carbonitrile] |
|  |  |  |  |  |  | 40.4 | COCCNc1nc(Nc2ccc(C(=O)N3CCN(C4COC4)CC3)c3c2OCCO3)nc2[nH]cc(C(F)(F)F)c12 [Example 403, (8-((4-((2-methoxyethyl)-amino)-5-(trifluoromethyl)-7H-pyrrolo[2,3-d]pyrimidin-2-yl)amino)-2,3-dihydrobenzo[b] [1,4]dioxin-5-yl) (4-(oxetan-3-yl)piperazin-1-yl)methanone] |
|  |  |  |  |  |  | 4.16 | O=C(c1ccc(Nc2nc(NC3CCCC3)c3c(C(F)(F)F)c[nH]c3n2)c2c1OCCO2)N1CCN(C2COC2)CC1 [Example 414, (8-((4-(cyclopentyl-amino)-5-(trifluoromethyl)-7H-pyrrolo[2,3-d]pyrimidin-2-yl)amino)-2,3-dihydrobenzo[b] [1,4]dioxin-5-yl) (4-(oxetan-3-yl)piperazin-1-yl)methanone] |
